Test results as given in patent publication US20240366617A1, “NOVEL CRYSTALLINE FORMS OF A NUCLEOSIDE COMPOUND AND SALTS THEREOF” (priority 2021, published 2024).
Values after ≈ are worked out from the molar mass of the structure shown. Where two headings read alike, the source gives them in different places.

What was measured:
[1] = Solubility study in biological media (FaSSIF, FeSSIF, SGF, water) at 37° C.; assay type: physicochemical; settings: for solubility at 0.5 h / solubility at 2 h / solubility at 24 h: thermodynamic from solid
Procedure: According to the results of salt formation screening research, the solubilities of free base crystalline form I and p-toluenesulfonate crystalline form I at 0.5 hours, 2 hours, and 24 hours were measured in FaSSIF, FeSSIF, SGF, and water at 37° C.

[2] = Study on the stability of influence factors (40° C./75% RH open, 60° C. sealed, 7 days; HPLC and XRPD); assay type: physicochemical; settings: for Purity at day 7 (Peak area %) 40° C./75% RH: 40° C./75% RH (open); for Purity at day 7 (Peak area %) 40° C./75% RH / Purity at day 7 (Peak area %) 60° C.: 7 days, HPLC; for Purity at day 7 (Peak area %) 60° C.: 60° C. (sealed sample bottle); for physical and chemical stability / purity and crystalline structure: 60° C. and 40° C./75% RH for 7 days; for Purity at day 0 (Peak area %): day 0, HPLC
Excerpt: X-ray powder diffraction patterns were collected by using a zero-background sample disk on a German Bruker D8 Advance X-ray diffractometer equipped with an automatic sampler. The used radiation source is Cu k α (λ=1.5418 Å), and the light tube voltage is set at 40 KV and the light tube current is set at 40 mA. The divergent slit of X-rays is 0.6 mm. A proper amount of sample was placed in the center of the zero-background sample tray under the environmental condition, the sample was lightly pressed with a clean glass slide to obtain a flat plane, and the zero-background sample rack was fixed. Diffraction analysis of the sample was performed with a scanning step size of 0.02° (2θ) in the range of 3-40° (2θ). The software used for data collection is DIFFRAC.COMMANDER, and the data is analyzed and presented using DIFFRAC.EVA.
The instrument used for liquid chromatography analysis is Agilent HPLC 1260 series,
ATV-014 free base crystalline form I, ATV-014 hydrobromate crystalline form I, and ATV-014 p-toluenesulfonate crystalline form I were taken and placed at 40° C./75% RH (open) and 60° C. (sealed sample bottle) for 7 days. High-performance liquid chromatography and X-ray powder diffraction detection were performed at 0 and 7 days, respectively.

[3] = Moisture absorption on placement under RH (open) conditions for one week; assay type: physicochemical; settings: for moisture absorption: one week
Excerpt: • (1) The compound ATV-014 hydrobromate crystalline form I provided herein is placed under 70% RH (open) conditions for one week, the moisture absorption is 0.2%, and under 90% RH (open) conditions for one week, the moisture absorption is 18.8%. • (2) The compound ATV-014 p-toluenesulfonate crystalline form I provided herein is placed under 30% RH (open) conditions for one week, the moisture absorption is 0.4%, and under 90% RH (open) conditions for one week, the moisture absorption is 0.5%.

[4] = DVS hygroscopicity test; assay type: physicochemical
[5] = Bioavailability of ATV014 compared to GS-441524
Excerpt: (§1) The compound ATV014 is a derivative of GS-441524.

[6] = Activity of ATV014 compared to GS-441524
Excerpt: as §1

[7] = in vivo in mice, compared with Remdesivir; cited from earlier work
[8] = compared with Remdesivir; cited from earlier work
[9] = Placement under 40° C./75% RH (open) conditions for one week (hydrochloride); assay type: physicochemical
[10] = after placement under 30% RH and 90% RH (open) for one week

Structure (SMILES): N#C[C@@]1(c2ccc3c(N)ncnn23)O[C@H](COC(=O)C2CCCCC2)[C@@H](O)[C@H]1O [ATV-014 free base crystalline form I]
- pH (solution pH) ([1]; FaSSIF, pH 6.45, 0.5 h): 6.45
- pH (solution pH) ([1]; FaSSIF, pH 6.45, 2 h): 6.44
- pH (solution pH) ([1]; FaSSIF, pH 6.45, 24 h): 6.58
- pH (solution pH) ([1]; FeSSIF, pH 4.95, 0.5 h): 4.76
- pH (solution pH) ([1]; FeSSIF, pH 4.95, 2 h): 4.74
- pH (solution pH) ([1]; FeSSIF, pH 4.95, 24 h): 4.96
- solubility ([1]; SGF, 37° C., 0.5-24 h, medium not named in the sentence for the p-toluenesulfonate): 2500 to 2900 µg/mL
- pH (solution pH) ([1]; SGF, pH 1.24, 0.5 h): 0.95
- pH (solution pH) ([1]; SGF, pH 1.24, 2 h): 0.9
- pH (solution pH) ([1]; SGF, pH 1.24, 24 h): 1.26
- solubility at 0.5 h ([1]; simulated gastric fluid, SGF, pH 1.24, 0.5 h, 37° C.): 2480 µg/mL (≈ 6180 µM)
- solubility at 2 h ([1]; simulated gastric fluid, SGF, pH 1.24, 2 h, 37° C.): 2560 µg/mL (≈ 6380 µM)
- solubility at 24 h ([1]; simulated gastric fluid, SGF, pH 1.24, 24 h, 37° C.): 2860 µg/mL (≈ 7120 µM)
- solubility at 0.5 h ([1]; FaSSIF, pH 6.45, 0.5 h, 37° C.): 7 µg/mL (≈ 17.4 µM)
- solubility at 2 h ([1]; FaSSIF, pH 6.45, 2 h, 37° C.): 10 µg/mL (≈ 24.9 µM)
- solubility at 24 h ([1]; FaSSIF, pH 6.45, 24 h, 37° C.): 21 µg/mL (≈ 52.3 µM)
- solubility at 0.5 h ([1]; FeSSIF, pH 4.95, 0.5 h, 37° C.): 14 µg/mL (≈ 34.9 µM)
- solubility at 2 h ([1]; FeSSIF, pH 4.95, 2 h, 37° C.): 19 µg/mL (≈ 47.3 µM)
- solubility at 24 h ([1]; FeSSIF, pH 4.95, 24 h, 37° C.): 20 µg/mL (≈ 49.8 µM)
- solubility at 0.5 h ([1]; water, pH 5.53, 0.5 h, 37° C.): 5 µg/mL (≈ 12.5 µM)
- solubility at 2 h ([1]; water, pH 5.53, 2 h, 37° C.): 6 µg/mL (≈ 14.9 µM)
- solubility at 24 h ([1]; water, pH 5.53, 24 h, 37° C.): 5 µg/mL (≈ 12.5 µM)
- pH (solution pH) ([1]; water, pH 5.53, 0.5 h): 7.24
- pH (solution pH) ([1]; water, pH 5.53, 2 h): 6.45
- pH (solution pH) ([1]; water, pH 5.53, 24 h): 6.5
- Purity at day 7 (Peak area %) 40° C./75% RH [2]: 98.09%
- Purity at day 7 (Peak area %) 60° C. [2]: 98.10%
- physical and chemical stability [2]: good
- purity and crystalline structure [2]: remained unchanged
- Purity at day 0 (Peak area %) [2]: 98.12%

Structure (SMILES): Cc1ccc(S(=O)(=O)O)cc1.N#C[C@@]1(c2ccc3c(N)ncnn23)O[C@H](COC(=O)C2CCCCC2)[C@@H](O)[C@H]1O.O
- moisture absorption ([3]; 30% RH (open)): 0.4%
- moisture absorption ([3]; 90% RH (open)): 0.5%
- crystalline structure and chemical purity [3, 10]: have not changed
- physical and chemical stability [3, 10]: good
- hygroscopicity (DVS results) [4]: slight hygroscopicity
- solid form during / after the DVS test [4]: no change in the crystalline structure
- hygroscopic weight gain ([4]; 90% RH): 0.5%
- solubility [1]: higher than 5 mg/mL
- solubility in water relative to that of free base [1]: 30 times
- pH (solution pH) ([1]; FaSSIF, pH 6.45, 0.5 h): 5.7
- pH (solution pH) ([1]; FaSSIF, pH 6.45, 2 h): 5.67
- pH (solution pH) ([1]; FaSSIF, pH 6.45, 24 h): 5.85
- pH (solution pH) ([1]; FeSSIF, pH 4.95, 0.5 h): 4.65
- pH (solution pH) ([1]; FeSSIF, pH 4.95, 2 h): 4.62
- pH (solution pH) ([1]; FeSSIF, pH 4.95, 24 h): 4.83
- pH (solution pH) ([1]; SGF, pH 1.24, 0.5 h): 0.69
- pH (solution pH) ([1]; SGF, pH 1.24, 2 h): 0.70
- pH (solution pH) ([1]; SGF, pH 1.24, 24 h): 1.20
- solubility ([1]; pH 1.24): >5000 µg/mL
- XPRD (solid form of the residue) ([1]; pH 4.95): free base
- XPRD (solid form of the residue) ([1]; pH 5.53): free base
- XPRD (solid form of the residue) ([1]; pH 6.45): free base
- pH (solution pH) ([1]; water, pH 5.53, 0.5 h): 2.05
- pH (solution pH) ([1]; water, pH 5.53, 2 h): 2.07
- pH (solution pH) ([1]; water, pH 5.53, 24 h): 2.43
- Purity at day 7 (Peak area %) 40° C./75% RH [2]: 98.71%
- Purity at day 7 (Peak area %) 60° C. [2]: 98.62%
- physical and chemical stability [2]: good
- purity and crystalline structure [2]: remained unchanged
- Purity at day 0 (Peak area %) [2]: 98.60%

Structure (SMILES): N#C[C@@]1(c2ccc3c(N)ncnn23)O[C@H](COC(=O)C2CCCCC2)[C@@H](O)[C@H]1O [ATV014]
- bioavailability [5]: better
- activity [6]: better

Structure (SMILES): N#C[C@@]1(c2ccc3c(N)ncnn23)O[C@H](CO)[C@@H](O)[C@H]1O [GS-441524]
- antiviral effect [7]: superior to that of Remdesivir
- safety [8]: better safety

Structure (SMILES): Br.N#C[C@@]1(c2ccc3c(N)ncnn23)O[C@H](COC(=O)C2CCCCC2)[C@@H](O)[C@H]1O [ATV-014 hydrobromide crystalline form I]
- moisture absorption ([3]; 70% RH (open)): 0.2%
- moisture absorption ([3]; 90% RH (open)): 18.8%
- hygroscopicity (DVS results) [4]: has hygroscopicity
- solid form during / after the DVS test [4]: transforms into an amorphous glassy solid
- hygroscopic weight gain ([4]; 70% RH, after equilibrating for 30 to 120 minutes): 0.2%
- hygroscopic weight gain ([4]; 90% RH): 18.8%
- Purity at day 7 (Peak area %) 40° C./75% RH [2]: Liquefaction,
- state of the sample ([2]; 40° C./75% RH for 7 days): the sample liquefies
- Purity at day 7 (Peak area %) 60° C. [2]: 99.57%
- purity and crystalline form ([2]; 60° C. for 7 days): remained unchanged
- Purity at day 0 (Peak area %) [2]: 99.46%

Structure (SMILES): Cl.N#C[C@@]1(c2ccc3c(N)ncnn23)O[C@H](COC(=O)C2CCCCC2)[C@@H](O)[C@H]1O [ATV-014 hydrochloride crystalline form]
- crystalline structure and chemical purity [9]: have not changed
- physical and chemical stability [9]: good
